Source: paper PMC4549042, “Targeting procaspase-3 with WF-208, a novel PAC-1 derivative, causes selective cancer cell apoptosis” (Journal of Cellular and Molecular Medicine, 2015)
Residues, ends and D or L forms follow the SMILES beside them. *: point of attachment. Cbz = O=C(OCc1ccccc1)*; CH2F = FC*

Assays:
HL-60 cell line = assay: MTT cell viability assay, HL-60; format: cell-based; details: Homo sapiens, 72 hrs
Experimental: (§1) The cell viability effects of the tested compounds were determined by MTT assay. Cells (1 × 10^4 cells/100 μl/well) were seeded into 96-well culture plates. After overnight incubation, cells were treated with various concentrations of compounds for 72 hrs. Subsequently, 10 μl MTT solution (2.5 mg/ml in PBS) was added to each well, than the cells were incubated for an additional 3–4 hrs at 37°C. After centrifugation (200 × g, 10 min.), the medium with MTT was aspirated, followed by the addition of 100 μl DMSO. The optical density of each well was measured at 570 nm with a Biotek Synergy TM HT Reader.

[1] = tested on: HL-60 and U-937 cell lines; assay: Western blot of Bcl-2 family and IAP proteins in HL-60 and U-937; format: cell-based, human; details: 5 μM MG132 co-treated with 10 μM WF-208, 24 hrs
Experimental: Approximately 1 × 10^7 HL-60 cells were gathered after pre-treatment with PAC-1 and WF-208 as previously described. The tumour tissue protein was purified according to the reported methods. Western blotting was performed as previously described. All antibodies were purchased from Cell Signaling Technology. In brief, an equal amount of total protein extracts from cultured cells or tissues were fractionated by 10–15% SDS-PAGE and electrically transferred onto polyvinylidene difluoride (PVDF) membranes. Different primary antibodies and corresponding horseradish peroxidase-conjugated secondary antibodies were used to detect the proteins. The bound secondary antibodies on the PVDF membrane were reacted with ECL™ Western Blotting Reagents detection reagents (Thermo Fisher, Rockford, USA) and exposed to X-ray films. Results were normalized to the internal control β-actin.

rh-procaspase-3 = molecular target: T1, rh-procaspase-3 (Homo sapiens, UniProt P42574); assay: Caspase-3 activation assay (procaspase-3 activation in vitro); format: biochemical; details: rh-procaspase-3, concentrations 0.08–100 μM
T1 construct: purchased R&D System (Minneapolis, USA)
T1 sequence (P42574 1-277): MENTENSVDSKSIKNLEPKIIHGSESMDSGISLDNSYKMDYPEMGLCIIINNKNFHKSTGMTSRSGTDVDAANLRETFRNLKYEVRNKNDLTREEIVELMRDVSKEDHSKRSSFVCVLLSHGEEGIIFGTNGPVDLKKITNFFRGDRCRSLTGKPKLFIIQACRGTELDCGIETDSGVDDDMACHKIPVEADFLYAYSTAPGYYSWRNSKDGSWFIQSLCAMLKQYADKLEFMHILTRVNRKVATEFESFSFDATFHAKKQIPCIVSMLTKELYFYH
Experimental: Procaspase-3 protein was purchased from R&D System (Minneapolis, USA). Procaspase-3 protein was added into 384-well plates. Tested compounds (or DMSO as control) were then added to achieve a final concentration of procaspase-3 of 50 ng/ml. Each plate was incubated for 2 hrs at 37°C. Then caspase-3 peptide substrate (acetyl Asp-Glu-Val-Asp-[…] (Ac-DEVD-pNa), 200 μM) were added. The absorbance of each well was measured at 405 nm in kinetic mode for 10 min [13].

[2] = tested on: mouse primary cortical cell; assay: Cytotoxicity in mouse primary cortical neuron cells; format: cell-based; details: neurotoxicity
Experimental: as §1

PC-3 xenograft = assay: Human prostatic carcinoma PC-3 xenograft mouse model; format: in vivo; details: 2.5 mg/kg i.v., 15 days
Experimental: To determine the anti-tumour activity of WF-208 in vivo, viable human prostate cancer PC-3 cells (5 × 10^6/100 μl PBS per mouse) were subcutaneously (s.c.) injected into the right flank of 7- to 8-week old male SCID mice. When the average tumour volume reached 100 mm^3, mice were randomly divided into various treatment and control group (eight mice per group). Tumour size was measured once every 2 days with a calliper (calculated volume = shortest diameter^2 × longest diameter/2). Body weight, diet consumption and tumour size were recorded once every 2 days. After 2 weeks, mice were killed and tumours were excised and stored at −80°C until further analysis.

[3] = tested on: HL-60 and U-937 cell lines; assay: Caspase inhibitors on WF-208-induced early apoptosis (Annexin V/PI); format: cell-based, human; details: 50 μM inhibitor, 10 μM WF-208, 24 hrs
Experimental: Compounds were incubated with HL-60 and U-937 cells for 24 hrs. The cells were harvested and double-stained with FITC-Annexin V Apoptosis Detection Kit (BD Biosciences, San Jase, USA). Cells that positively stained with Annexin V and negatively stained with PI were considered to be early apoptotic.

Row | Compound | IC50 (HL-60 cell line) | further results
1 | C=CCc1cccc(/C=N/NC(=O)CN2CCN(Cc3nc(-c4ccc(COc5ccc(Cl)cc5)cc4)no3)CC2)c1O [A1] | 0.25 µM | –
2 | C=CCc1cccc(/C=N/NC(=O)CN2CCN(Cc3nc(-c4ccc(COc5ccc(F)cc5)cc4)no3)CC2)c1O [A2] | 0.39 µM | –
3 | C=CCc1cccc(/C=N/NC(=O)CN2CCN(Cc3nc(-c4ccc(COc5cccc(Cl)c5)cc4)no3)CC2)c1O [A3] | 0.4 µM | –
4 | C=CCc1cccc(/C=N/NC(=O)CN2CCN(Cc3nc(-c4ccc(COc5ccccc5C(F)(F)F)cc4)no3)CC2)c1O [A4] | 0.35 µM | –
5 | O=C(CN1CCN(Cc2nc(-c3ccc(COc4ccc(Cl)cc4)cc3)no2)CC1)N/N=C/c1ccc(OCc2ccccc2)cc1O [B1] | 1.26 µM | –
6 | O=C(CN1CCN(Cc2nc(-c3ccc(COc4ccc(F)cc4)cc3)no2)CC1)N/N=C/c1ccc(OCc2ccc(Cl)cc2Cl)cc1O [B2] | 1.02 µM | –
7 | O=C(CN1CCN(Cc2nc(-c3ccc(COc4ccc(F)cc4)cc3)no2)CC1)N/N=C/c1ccc(OCc2cccc(C(F)(F)F)c2)cc1O [B3] | 0.98 µM | –
8 | CC(C)(C)c1ccc(COc2ccc(/C=N/NC(=O)CN3CCN(Cc4nc(-c5ccc(COc6ccc(Cl)cc6)cc5)no4)CC3)c(O)c2)cc1 [B4] | 0.67 µM | –
9 | O=C(CN1CCN(Cc2nc(-c3ccc(COc4ccc(Cl)cc4)cc3)no2)CC1)N/N=C/c1ccc(OCc2ccc(Cl)cc2Cl)cc1O [B5] | 1.07 µM | –
10 | CC(C)(C)c1ccc(COc2ccc(/C=N/NC(=O)CN3CCN(Cc4nc(-c5ccc(COc6ccc(F)cc6)cc5)no4)CC3)c(O)c2)cc1 [B6] | 0.6 µM | –
11 | O=C(CN1CCN(Cc2nc(-c3ccc(COc4ccc(F)c(F)c4)cc3)no2)CC1)N/N=C/c1ccc(OCc2ccccc2)cc1O [B7] | 0.34 µM | –
12 | O=C(CN1CCN(Cc2nc(-c3ccc(COc4ccc(F)c(F)c4)cc3)no2)CC1)N/N=C/c1ccc(OCc2ccc(Cl)cc2)cc1O [B8] | 0.3 µM | –
13 | O=C(CN1CCN(Cc2nc(-c3ccc(COc4ccc(F)c(F)c4)cc3)no2)CC1)N/N=C/c1ccc(OCc2ccc(Cl)cc2Cl)cc1O [B9] | 0.41 µM | –
14 | CC(C)(C)c1ccc(COc2ccc(/C=N/NC(=O)CN3CCN(Cc4nc(-c5ccc(COc6ccccc6C(F)(F)F)cc5)no4)CC3)c(O)c2)cc1 [B10] | 0.4 µM | –
15 | O=C(CN1CCN(Cc2nc(-c3ccc(COc4ccccc4C(F)(F)F)cc3)no2)CC1)N/N=C/c1ccc(OCc2cccc(F)c2)cc1O [B11] | 1.93 µM | –
16 | O=C(CN1CCN(Cc2nc(-c3ccc(COc4ccc(Cl)cc4)cc3)no2)CC1)N/N=C/c1ccc(OCc2cccc(Cl)c2)cc1O [B12] | > 20 µM | –
17 | O=C(CN1CCN(Cc2nc(-c3ccc(COc4ccccc4C(F)(F)F)cc3)no2)CC1)N/N=C/c1ccc(OCc2csc(Cc3ccc4c(c3)OCO4)n2)cc1O [C1] | 1.08 µM | –
18 | CC(C)C[C@@H](C=O)NC(=O)[C@H](CC(C)C)NC(=O)[C@H](CC(C)C)NC(=O)OCc1ccccc1 [MG132, reference compound] (Cbz-Leu-Leu-Leu-aldehyde) | – | effect on down-regulation of XIAP and survivin induced by WF-208 [1]: blocked the down-regulation
19 | C=CCc1cccc(/C=N/NC(=O)CN2CCN(Cc3ccccc3)CC2)c1O [PAC-1] | 2.1 µM | EC50 (rh-procaspase-3): 6.02 µM; IC50 [2]: 50.1 µM; influence on body weight (PC-3 xenograft): minimal influence; tumour volume compared with control group (PC-3 xenograft): no significantly difference
20 | COC(=O)CC[C@H](NC(=O)[C@H](CC(=O)OC)NC(=O)OCc1ccccc1)C(=O)N[C@H](C(=O)N[C@@H](CC(=O)OC)C(=O)CF)C(C)C [Z-DEVD-FMK] | – | effect of inhibitor on WF-208-induced early apoptosis [3]: abolish
21 | COC(=O)CC[C@H](NC(=O)[C@H](CC(C)C)NC(=O)OCc1ccccc1)C(=O)N[C@@H](Cc1cnc[nH]1)C(=O)N[C@@H](CC(=O)OC)C(=O)CF [Z-LEHD-FMK] (Cbz-LE(OMe)HD(OMe)-CH2F) | – | effect of inhibitor on WF-208-induced early apoptosis [3]: partly inhibit
22 | COC(=O)C[C@H](NC(=O)[C@H](C)NC(=O)[C@@H](NC(=O)OCc1ccccc1)C(C)C)C(=O)CF [Z-VAD-FMK] (Cbz-Val-Ala-Asp(OMe)-CH2F) | – | effect of inhibitor on WF-208-induced early apoptosis [3]: abolish
